Laboratory results as given in patent US6194169A, “Enhanced expression of human platelet-derived growth factor in Pichia pastoris” (The University of Kentucky Research Foundation, priority 1998, dated 2001).

Legend:
[1] = test system: human glioblastoma (U87) cells; assay: Tumor growth of stably transfected U87 cells in athymic nude mice; type: in vivo; settings: 10^7 transfected U87 cells s.c. in athymic nude mice
Description: Transfections and stable expression in the human glioblastoma cell line U87 were performed using a liposomal reagent (Lipofectin™) (Gibco/BRL; Gaithersburg, Md.), as described. Cells were cultured in 162 cm^2 flasks in complete DMEM. On the day of injection, cells were removed by trypsinization, rinsed twice with Hanks balanced salt solution (HBSS, without phenol red; Gibco/BRL), and resuspended in 300 μL HBSS. Cells (10^7) from exponentially growing cultures of stable U87 transfectants were injected subcutaneously between the scapulae of 9-week-old athymic nude mice (Harlan Sprague-Dawley, nu/nu) using a 1 cc tuberculin syringe equipped with a 23-gauge needle. Two-dimensional measurements of tumors were obtained with vernier calipers.

[2] = PDGF-BB expressed in Saccharomyces cerevisiae, Craig et al. (1992); cited from earlier work
PDGF α-receptor [3] = assay: In vitro PDGF receptor autophosphorylation in A204 cells; type: cell-based; settings: 170 kDa PDGF receptor species
Description: In vitro assays of PDGF receptor autophosphorylation were conducted essentially as described. […] ATP (3000 Ci/mmol) for 10 min at 30° C. Immunoprecipitates were analyzed by SDS-PAGE (6% polyacrylamide).

NR6 cells = assay: Mitogenesis, [3H]thymidine incorporation in NR6 cells; type: cell-based; settings: NR6 cells (primarily α-receptors), ALLFIT fit
Description: (§1) Radioreceptor assays were conducted in A204 and rat mesangial cells (RMC, R52 line) as described previously using 20,000 cpm of [^125 I]PDGF-BB (1200 Ci/mmol; Amersham, Buckinghamshire, England) as radioligand and unlabeled recombinant PDGF-BB proteins as competitor. Mitogenic activities of recombinant PDGF-BB proteins were determined by measuring [^3 H]thymidine incorporation into cells as described.

PDGF β-receptor [4] = assay: Radioreceptor assay (RRA), competition with [125I]PDGF-BB in R52 rat mesangial cells; type: binding; settings: R52 cells (β isotype); [125I]PDGF-BB radioligand; Pichia-expressed protein; ALLFIT fit
Description: as §1

PDGF β-receptor [5] = assay: In vitro PDGF receptor autophosphorylation in R52 cells; type: cell-based, rat; settings: 170 kDa PDGF receptor species
Description: In vitro assays of PDGF receptor autophosphorylation were conducted essentially as described. A204 and R52 cells (obtained from the American Type Culture Collection (ATCC) were grown to near confluence on 100-mm plastic dishes and maintained in low mitogenicity medium for 24 h. Cells were pre-chilled at 4° C. for 60 min and then incubated with PDGF-BB preparations for 10 min at 4° C. Cell lysates were incubated with either anti-PDGFRα or anti-PDGFRβ IgG (Santa Cruz Biotechnologies) for 60 min at 4° C., centrifuged for 10 min and incubated in fresh tubes containing protein A-agarose (Sigma) for 60 min at 4° C. Kinase assays were performed in 25 μL kinase buffer (20 mM Tris HCl, 1 mM DTT, 10 mM MnCl2, pH 7.5) and 5 μCi [γ-^32 P] ATP (3000 Ci/mmol) for 10 min at 30° C. Immunoprecipitates were analyzed by SDS-PAGE (6% polyacrylamide).

PDGF α-receptor [6] = assay: Radioreceptor assay (RRA), competition with [125I]PDGF-BB in A204 cells; type: binding; settings: A204 cells (α isotype only); [125I]PDGF-BB radioligand; Pichia-expressed protein; ALLFIT fit
Description: as §1

[7] = Heparin-agarose in vitro batch binding assay; settings: 200 mM NaCl, 40 mM Hepes pH 7.4; 3 μg protein; bound fraction by ELISA
Description: Mixtures containing 300 μL of a 50:50 slurry of heparin-agarose in 200 mM NaCl, 40 mM Hepes, pH 7.4 were incubated with 3 μg of PDGF-BB proteins for 15 min at 23° C. Supernatants were obtained by microcentrifugation and collected with a 23 G needle. Pellets were washed with 300 μL of buffer, which was combined with the first supernatant ("unbound" PDGF). Pellets were then washed twice with 150 μL of buffer containing 1 M NaCl, and supernatants were pooled (high salt wash fraction, or "bound" PDGF). PDGF-BB content of bound and unbound fractions were determined by ELISA.

Row | Substance | effect of overexpression on U87 tumor growth in vivo vs Neo controls (in words) [1] | Structure (%) Beta [2] [%] | Structure (%) Helix [2] [%] | Structure (%) Random [2] [%] | induction of α-receptor autophosphorylation (in words) (PDGF α-receptor [3]) | Mitogenesis ED50 (NR6 cells) [ng/mL] | RRA: IC50 β (PDGF β-receptor [4]) [ng/mL] | induction of β-receptor autophosphorylation (in words) (PDGF β-receptor [5]) | RRA: IC50 α (PDGF α-receptor [6]) [ng/mL] | heparin-binding, protein in the bound fraction [7] [%]
1 | A-WT-RKK: wild-type PDGF A-chain overexpressed from cDNA in stably transfected U87 cells | not significantly different |  |  |  |  |  |  |  |  | 
2 | PDGF-BB: wild-type human PDGF-BB expressed in Saccharomyces cerevisiae, CD data as reported by Craig et al. (1992) |  | 51.0 | 4.0 | 45.0 |  |  |  |  |  | 
3 | WT-RKK: human PDGF B-chain (PDGF-BB homodimer) with wild-type loop III residues Arg Lys Lys (RKK) | not significantly different |  |  |  | dose-dependent autophosphorylation | 52 | 4.0 | dose-dependent autophosphorylation | 9.2 | ~100
